Where two headings read alike, the source gives them in different places.
What was measured:
Format in all cases: cell-based
ΔF508-CFTR [1] = biological target: T1, ΔF508-CFTR (Homo sapiens, UniProt P13569, DEL508-508); assay: CFTR cell surface levels using HRP-tagged ΔF508-CFTR expressing CFBE cells, in the presence of a co-corrector; details: HRP-tagged ΔF508-CFTR CFBE cells, in the presence of 3 μM co-corrector; for EC50: read-out: EC50
T1 construct: host or cells: CFBE41o-, doxycycline-inducible
T1 sequence (P13569 with tags, fused parts or gaps DEL508-508): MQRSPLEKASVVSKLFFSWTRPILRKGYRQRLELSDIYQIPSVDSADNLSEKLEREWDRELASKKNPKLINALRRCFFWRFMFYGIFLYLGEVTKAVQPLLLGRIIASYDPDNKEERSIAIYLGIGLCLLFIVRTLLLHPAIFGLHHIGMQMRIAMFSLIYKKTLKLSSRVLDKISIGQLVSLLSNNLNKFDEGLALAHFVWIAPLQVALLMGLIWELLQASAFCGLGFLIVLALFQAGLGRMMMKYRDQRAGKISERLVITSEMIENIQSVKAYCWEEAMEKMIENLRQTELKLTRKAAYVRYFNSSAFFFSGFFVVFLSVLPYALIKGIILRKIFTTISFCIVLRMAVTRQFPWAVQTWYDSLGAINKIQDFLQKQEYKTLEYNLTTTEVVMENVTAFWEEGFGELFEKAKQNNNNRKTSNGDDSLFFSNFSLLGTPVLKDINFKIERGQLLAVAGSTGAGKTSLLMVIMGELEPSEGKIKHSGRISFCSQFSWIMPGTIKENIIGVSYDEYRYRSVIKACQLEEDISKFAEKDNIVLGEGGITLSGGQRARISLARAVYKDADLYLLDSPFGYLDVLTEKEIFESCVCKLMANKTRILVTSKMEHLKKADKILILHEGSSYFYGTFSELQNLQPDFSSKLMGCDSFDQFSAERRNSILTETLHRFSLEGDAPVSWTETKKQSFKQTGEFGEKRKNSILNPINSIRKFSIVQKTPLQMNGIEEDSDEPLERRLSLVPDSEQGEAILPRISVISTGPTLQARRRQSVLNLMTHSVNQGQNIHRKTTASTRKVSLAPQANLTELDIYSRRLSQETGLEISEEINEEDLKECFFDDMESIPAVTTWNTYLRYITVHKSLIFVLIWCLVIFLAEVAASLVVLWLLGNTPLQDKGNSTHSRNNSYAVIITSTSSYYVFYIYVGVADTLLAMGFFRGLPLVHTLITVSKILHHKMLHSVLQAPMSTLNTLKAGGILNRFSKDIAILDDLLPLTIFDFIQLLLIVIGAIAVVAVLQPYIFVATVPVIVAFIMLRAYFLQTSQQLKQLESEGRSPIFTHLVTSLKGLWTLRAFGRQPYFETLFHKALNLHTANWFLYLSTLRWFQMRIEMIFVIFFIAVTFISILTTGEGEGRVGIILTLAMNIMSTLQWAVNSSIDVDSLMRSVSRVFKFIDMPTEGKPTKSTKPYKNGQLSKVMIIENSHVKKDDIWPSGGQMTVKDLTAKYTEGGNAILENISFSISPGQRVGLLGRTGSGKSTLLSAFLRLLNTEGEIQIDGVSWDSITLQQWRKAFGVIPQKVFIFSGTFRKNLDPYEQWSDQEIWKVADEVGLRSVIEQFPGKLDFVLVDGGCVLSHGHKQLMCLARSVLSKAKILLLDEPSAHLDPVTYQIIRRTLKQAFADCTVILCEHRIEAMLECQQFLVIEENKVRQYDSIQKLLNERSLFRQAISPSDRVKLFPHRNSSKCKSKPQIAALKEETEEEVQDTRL
Summary of the method: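 Chemiluminescent read-out of surface HRP (15 min, dark) after PBS washes. Activity is normalized as 100×(sample−DMSO)/(3 μM co-corrector alone−DMSO).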

ΔF508-CFTR [2] = biological target: T1, ΔF508-CFTR; assay: CFTR cell surface levels using HRP-tagged ΔF508-CFTR expressing CFBE cells, intrinsic corrector capacity; set-up: % Activation: concentration or dose not given beside the values; details: HRP-tagged ΔF508-CFTR expressing CFBE41o- cells, compound alone (intrinsic corrector capacity), 20 hours at 33° C.; for EC50: read-out: EC50
Summary of the method: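 Surface ΔF508-CFTR was measured as HRP chemiluminescence from an extracellular-loop-4 tag, expressed as percent activity between DMSO and a […] corrector control.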

CFTR ΔF508 = biological target: T2, CFTR ΔF508 (Homo sapiens, UniProt P13569, DEL508-508); assay: Chronic TECC assay, primary bronchial epithelial cells of CF patients homozygous for CFTR ΔF508 (corrector, co-corrector and potentiator); details: chronic TECC; for % Activity at 1 μM (Ieq*) / % Activity at 1 μM (AUC**): test compound at 1 μM; for % Activity at 3 μM (AUC**): test compound at 3 μM
T2 construct: bronchial epithelial cells isolated from CF patients homozygous for the CFTR ΔF508 mutation; McGill University; Asterand; University of North Carolina hAEC-CF; host or cells: primary human bronchial epithelial cells from CF patients homozygous for ΔF508, differentiated at air-liquid interface
T2 sequence (P13569 with tags, fused parts or gaps DEL508-508): as above
Summary of the method: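 Primary bronchial epithelial cells from ΔF508-homozygous CF patients on collagen IV-coated Transwells were chronically treated with test compound plus corrector and potentiator, which were re-added before recording. Ieq was derived from PD and Rt in NaCl-Ringer, pH 7.4, at 37° C, with apical amiloride and bilateral forskolin, recorded every 2 min over 20 min. Ieq increase was normalized to controls, and EC50 was taken from per-well concentrations.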

[3] = Ieq = calculations based on the maximum current, read-out: EC50 (nM) (Ieq*)
[4] = Ieq = calculations based on the maximum current
[5] = AUC = full area under the curve upon forskolin stimulation, read-out: EC50 (nM) (AUC**)
[6] = AUC = full area under the curve upon forskolin stimulation

SMILES	% Activation (ΔF508-CFTR [1]) [%]	EC50 (ΔF508-CFTR [1]) [nM]	% Activation (ΔF508-CFTR [2]) [%]	EC50 (ΔF508-CFTR [2]) [nM]	EC50 (CFTR ΔF508; [3]) [nM]	% Activity at 1 μM (Ieq*) (CFTR ΔF508; [4]) [%]	EC50 (CFTR ΔF508; [5]) [nM]	% Activity at 1 μM (AUC**) (CFTR ΔF508; [6]) [%]	% Activity at 3 μM (AUC**) (CFTR ΔF508; [6]) [%]
CC(C)c1nn(-c2cccc(N(C)C)c2)c2nc(C(=O)NS(C)(=O)=O)cc(-c3cnc(N4CCC(C#N)CC4)nc3)c12 [Compound 95, 4-[2-(4-cyanopiperidin-1-yl)pyrimidin-5-yl]-1-[3-(dimethylamino)phenyl]-N-(methanesulfonyl)-3-(propan-2-yl)-1H-pyrazolo[3,4-b]pyridine-6-carboxamide]	611.7	649	355.6	838	10	180	–	–	–
COC(C)(C1CCN(c2cc(C(=O)NS(C)(=O)=O)nc3c2c(C2CCC2)nn3-c2ccccc2)CC1)C(F)(F)F (stereo not drawn) [Compound 242, 3-cyclobutyl-N-(methanesulfonyl)-1-phenyl-4-[4-(1,1,1-trifluoro-2-methoxypropan-2-yl)piperidin-1-yl]-1H-pyrazolo[3,4-b]pyridine-6-carboxamide]	459.15	203	242.1	283	–	–	14	308.45	–
CCS(=O)(=O)NC(=O)c1cc(N2CCN(c3ccncc3)CC2)c2c(C3CCC3)nn(C3CCCCC3)c2n1 [Compound 470, 3-cyclobutyl-1-cyclohexyl-N-(ethanesulfonyl)-4-[4-(pyridin-4-yl)piperazin-1-yl]-1H-pyrazolo[3,4-b]pyridine-6-carboxamide]	485.5	115	275.4	231	–	–	–	210	–
CN(C)S(=O)(=O)NC(=O)c1cc(N2CCC(N3CC(C#N)C3)CC2)c2c(C3CCC3)nn(-c3ccc(F)cc3)c2n1 [Compound 523, 4-[4-(3-cyanoazetidin-1-yl)piperidin-1-yl]-3-cyclobutyl-N-(dimethylsulfamoyl)-1-(4-fluorophenyl)-1H-pyrazolo[3,4-b]pyridine-6-carboxamide]	451.33	100	236.53	124	–	–	–	–	460.2177
COCC1CCN(c2cc(C(=O)NS(=O)(=O)CCCN3CCOCC3)nc3c2c(C(C)C)nn3-c2ccc(F)cc2)CC1 [Compound 272, 1-(4-fluorophenyl)-4-[4-(methoxymethyl)piperidin-1-yl]-N-[3-(morpholin-4-yl)propane-1-sulfonyl]-3-(propan-2-yl)-1H-pyrazolo[3,4-b]pyridine-6-carboxamide]	451.2	43.3	268.2	96.5	–	–	–	285.35	–
CCS(=O)(=O)N(C)C(=O)c1cc(N2CCC(CN3CCCC3)CC2)c2c(C3CCC3)nn(-c3ccccc3)c2n1 [Compound 659, 3-cyclobutyl-N-(ethanesulfonyl)-N-methyl-1-phenyl-4-{4-[(pyrrolidin-1-yl)methyl]piperidin-1-yl}-1H-pyrazolo[3,4-b]pyridine-6-carboxamide]	290.95	130	96.44	142	–	–	–	–	251.6549
CC(C)c1nn(-c2ccccc2)c2nc(C(=O)NS(C)(=O)=O)cc(-c3ccc(N4CCOCC4)nc3)c12 [Compound 34, N-(methanesulfonyl)-4-[6-(morpholin-4-yl)pyridin-3-yl]-1-phenyl-3-(propan-2-yl)-1H-pyrazolo[3,4-b]pyridine-6-carboxamide]	462.55	356	292.95	611	< 30	270	–	–	–
COCCN(C)S(=O)(=O)NC(=O)c1cc(N2CCC(N3CCOCC3)CC2)c2c(C3CCC3)nn(-c3ccc(F)cc3)c2n1 [Compound 471, 3-cyclobutyl-1-(4-fluorophenyl)-N-[(2-methoxyethyl)(methyl)sulfamoyl]-4-[4-(morpholin-4-yl)piperidin-1-yl]-1H-pyrazolo[3,4-b]pyridine-6-carboxamide]	446.07	122	240.2	230	–	–	–	296.6667	–
COC(=O)N1CCC(COc2cc(C(=O)NS(C)(=O)=O)nc3c2c(C2CCC2)nn3-c2ccccc2)CC1 [Compound 297, methyl 4-[({3-cyclobutyl-6-[(methanesulfonyl)carbamoyl]-1-phenyl-1H-pyrazolo[3,4-b]pyridin-4-yl}oxy)methyl]piperidine-1-carboxylate]	423.43	77.2	193.9	99.2	–	–	≤ 30	470.97	–
COCCN(CCOC)c1ccc(-c2cc(C(=O)NS(C)(=O)=O)nc3c2c(C(C)C)nn3-c2ccnc(N3CCOCC3)c2)cn1 [Compound 252, 4-{6-[bis(2-methoxyethyl)amino]pyridin-3-yl}-N-(methanesulfonyl)-1-[2-(morpholin-4-yl)pyridin-4-yl]-3-(propan-2-yl)-1H-pyrazolo[3,4-b]pyridine-6-carboxamide]	310.75	1690	115.2	396	–	–	–	248.51	–
CS(=O)(=O)NC(=O)c1cc(C2CCC(N3CCOCC3)CC2)c2c(C3CCC3)nn(-c3ccccc3)c2n1 (stereo not drawn) [Compound 648, 3-cyclobutyl-N-(methanesulfonyl)-4-[4-(morpholin-4-yl)cyclohexyl]-1-phenyl-1H-pyrazolo[3,4-b]pyridine-6-carboxamide]	288.85	110	109.65	316	–	–	–	366.0679	–
CS(=O)(=O)NC(=O)c1cc(OCC2CCOCC2)c2c(C3CCC3)nn(-c3ccccc3)c2n1 [Compound 200, 3-cyclobutyl-N-(methanesulfonyl)-4-[(oxan-4-yl)methoxy]-1-phenyl-1H-pyrazolo[3,4-b]pyridine-6-carboxamide]	318.27	94.8	163.43	316	–	–	–	364.3	–
COCCS(=O)(=O)NC(=O)c1cc(OCC2(C)COC2)c2c(C3CCC3)nn(-c3ccccc3)c2n1 [Compound 269, 3-cyclobutyl-N-(2-methoxyethanesulfonyl)-4-[(3-methyloxetan-3-yl)methoxy]-1-phenyl-1H-pyrazolo[3,4-b]pyridine-6-carboxamide]	275.45	97.2	120.6	246	–	–	–	172.35	–
CC(C)c1nn(-c2cccc(N3CCOCC3)c2)c2nc(C(=O)NS(C)(=O)=O)cc(-c3ccc(N(C)C4CCOCC4)nc3)c12 [Compound 87, N-(methanesulfonyl)-4-{6-[methyl(oxan-4-yl)amino]pyridin-3-yl}-1-[3-(morpholin-4-yl)phenyl]-3-(propan-2-yl)-1H-pyrazolo[3,4-b]pyridine-6-carboxamide]	623.62	456	422.84	409	< 30	150	–	–	–

Reference: US10259810B2, “N-sulfonylated pyrazolo[3,4-b]pyridin-6-carboxamides and method of use” (AbbVie S.à.r.l., priority 2015, dated 2019)
